Tests used:
[1] = system: Yohimbine challenged rats; assay: Elevated plus maze test in Yohimbine challenged rats (Example 2); assay type: in vivo, male Wistar rats; details: for In the open arms: Percentage change compared to Yohimbine administered group, Number of entries / In the open arms: Percentage change compared to Yohimbine administered group, Time spent: YOH 2.5 mg/kg; for Number of entries in the open arms (Mean ± SEM) / Time spent in the open arms (Mean ± SEM): rats given YOH 2.5 mg/kg i.p., N=12
Protocol: Treatment with Test Compounds: • As outlined in the table • Vehicle is Saline
After compound administration, the rat was placed on the platform opposite a closed arm. The number of entries and the time spent in each arm were recorded during a 5 min period (deliverables). The animal was considered as entered in arm when it placed its four paws into the arm.
The number of rats processed per day was about 20 in this model. Therefore, the experiment was split in several series.
Analysis of variance (ANOVA) was performed on the result data. Fisher's PLSD was used for
pairwise comparisons and p value <0.05 was considered significant.

[2] = system: rats; assay: Elevated plus-maze test in the rat (Example 1); details: for significance of effect on number of entries, % of entries and time spent in the open arms as compared with vehicle control: Dexmedetomidine 10 μg/kg i.p. (increase), Fluoxetine 32 mg/kg i.p. (decrease), vs Group 1; for anxiolytic-like / anxiogenic-like activity in the Elevated Plus Maze Test (conclusion in words): rat, Dexmedetomidine 10 μg/kg i.p., alone or co-administered
Protocol: The test, reference, comparison or vehicle formulations were administered as a single intraperitoneal dose (i.p.).
Under standard artificial lighting (˜200 Lux), there was a contrast between the closed (obscure and safe) arms and the open (brightly illuminated and anxiogenic) arms of the maze.
The day preceding the experiment, rats were randomized based on their body weight.
The maze consisted of 4 arms of equal length and width (50×10 cm) arranged in the form of a plus sign (+). Two opposite arms were enclosed by 40 cm high walls (closed arms). The 2 other arms had no walls (open arms). The maze was raised approximately 65 cm above the floor. A rat was placed in the centre of the plus-maze and left to explore for 5 minutes.
The test was video-recorded and the number of entries into the open and closed arms and the time spent on the open arms were measured automatically using a video tracking system (EthoVision, Noldus). The % of open arm entries (open arm entries/total arm entries×100) were calculated. The total distance travelled was also reported.
10 rats were studied per group. The test was performed blind over 2 days with half of animals in each group each day.
Fluoxetine (32 mg/kg i.p.) administered 30 minutes before the test was used as comparison substance.
Clobazam (16 mg/kg i.p.), administered 30 minutes before the test was used as reference substance.
All animals received 2 consecutive administrations at 30 minutes before the test.
Data (for each parameter measured) with the test substance was analysed by comparing treated groups with vehicle controls using one-way ANOVA followed by post-hoc Dunnett's tests.
Data with the comparison reference substance (clobazam) was separately analysed by comparing each treated group with vehicle controls using unpaired Student's T-tests.

[3] = Dexmedetomidine 10 μg/kg i.p., Fluvoxamine 3 mg/kg i.p., alone or combined (Group 7), diazepam 1 mg/kg i.p.
[4] = FLUVO 3 mg/kg, alone or with DEX 10 μg/kg
[5] = FLUVO 10 mg/kg, alone or with DEX 10 μg/kg
[6] = FLUVO 3 mg/kg i.p., alone or with DEX 10 μg/kg i.p.
[7] = FLUVO 10 mg/kg i.p., alone or with DEX 10 μg/kg i.p.
[8] = DEX 10 μg/kg or diazepam 1 mg/kg i.p.
[9] = DEX 10 μg/kg i.p., DIAZEPAM 1 mg/kg i.p., or YOH + vehicle, 5 min test
[10] = Yohimbine 2.5 mg/kg i.p. + vehicle (Group 2) vs Group 1, p<0.0001
[11] = DEX 10 μg/kg or diazepam 1 mg/kg i.p., listed as DEX

COCCCCC(=NOCCN)c1ccc(C(F)(F)F)cc1 [Fluvoxamine, 5-methoxy-1-[4-(trifluoromethyl)phenyl]-1-pentanone O-(2-aminoethyl) oxime]
anxiolytic-like effect in Yohimbine administered rats (conclusion in words) [1, 3]: not statistically significant
significance of improvement in number of entries in the open arms compared with Yohimbine-administered vehicle group ([1]; Fluvoxamine 3 mg/kg i.p. (Group 5)): no significant improvement
significance of improvement in number of entries in the open arms compared with Yohimbine-administered vehicle group ([1]; Fluvoxamine 10 mg/kg i.p. (Group 6)): no significant improvement
anxiolytic-like effect in Yohimbine administered rats (conclusion in words) ([1]; Fluvoxamine 10 mg/kg i.p., in terms of the time spent in the open arms): significant anxiolytic-like effect
In the open arms: Percentage change compared to Yohimbine administered group, Number of entries [1, 4]: +52%
In the open arms: Percentage change compared to Yohimbine administered group, Time spent [1, 4]: +105%
In the open arms: Percentage change compared to Yohimbine administered group, Time spent ([1]; FLUVO 3 mg/kg, alone or with DEX 10 μg/kg, listed as FLUVO): +105%
In the open arms: Percentage change compared to Yohimbine administered group, Number of entries [1, 5]: +76%
In the open arms: Percentage change compared to Yohimbine administered group, Time spent [1, 5]: +232%
In the open arms: Percentage change compared to Yohimbine administered group, Time spent ([1]; FLUVO 10 mg/kg, alone or with DEX 10 μg/kg, listed as FLUVO): +232%
Number of entries in the open arms (Mean ± SEM) [1, 6]: 2.67 ± 0.22
Time spent in the open arms (Mean ± SEM) [1, 6]: 21.39 ± 2.67
Number of entries in the open arms (Mean ± SEM) [1, 7]: 3.08 ± 0.42
Time spent in the open arms (Mean ± SEM) [1, 7]: 34.60 ± 5.24

CN1C(=O)CN=C(c2ccccc2)c2cc(Cl)ccc21 [DIAZEPAM, Diazepam]
anxiolytic-like effect in Yohimbine administered rats (conclusion in words) [1, 3]: reversed Yohimbine-induced anxiety
In the open arms: Percentage change compared to Yohimbine administered group, Number of entries [1, 8]: +262%
In the open arms: Percentage change compared to Yohimbine administered group, Time spent [1, 8]: +620%
Number of entries in the open arms (Mean ± SEM) [1, 9]: 6.33 ± 0.28
Time spent in the open arms (Mean ± SEM) [1, 9]: 74.98 ± 4.31

COC(=O)[C@@H]1[C@H]2C[C@H]3c4[nH]c5ccccc5c4CCN3C[C@@H]2CC[C@@H]1O [YOH, Yohimbine]
change in number of entries to the open arms as compared to vehicle (saline) treated group [1, 10]: −63%
change in time spent in the open arms as compared to vehicle (saline) treated group [1, 10]: −81%
Number of entries in the open arms (Mean ± SEM) [1, 9]: 1.75 ± 0.25
Time spent in the open arms (Mean ± SEM) [1, 9]: 10.42 ± 1.28

CNCCC(Oc1ccc(C(F)(F)F)cc1)c1ccccc1 (stereo not drawn) [Fluoxetine, N-methyl-3-(p-trifluoromethylphenoxy)-3-phenylpropylamine]
significance of effect on number of entries, % of entries and time spent in the open arms as compared with vehicle control [2]: not significant
change in total distance travelled in the four arms as compared with vehicle control ([2]; Fluoxetine 32 mg/kg i.p. alone or with Dexmedetomidine 10 μg/kg, vs vehicle control (Group 1)): −65%
change in total number of entries in the four arms as compared with vehicle control ([2]; Fluoxetine 32 mg/kg i.p., vs vehicle control (Group 1)): −57%
anxiolytic-like / anxiogenic-like activity in the Elevated Plus Maze Test (conclusion in words) ([2]; Fluoxetine 32 mg/kg i.p.): tended to show anxiogenic like effect

Cc1cccc([C@H](C)c2cnc[nH]2)c1C [Dexmedetomidine, (+) 4-(S)-[1-(2,3-dimethylphenyl)ethyl]-1H-imidazole]
significance of effect on number of entries, % of entries and time spent in the open arms as compared with vehicle control [2]: not significant
anxiolytic-like / anxiogenic-like activity in the Elevated Plus Maze Test (conclusion in words) ([2]; Fluoxetine 32 mg/kg i.p.): absence of anxiolytic-like activity
anxiolytic-like effect in Yohimbine administered rats (conclusion in words) [1, 3]: not statistically significant
In the open arms: Percentage change compared to Yohimbine administered group, Number of entries [1, 8]: +48%
In the open arms: Percentage change compared to Yohimbine administered group, Time spent [1, 8]: +146%
In the open arms: Percentage change compared to Yohimbine administered group, Number of entries [1, 11]: +48%
In the open arms: Percentage change compared to Yohimbine administered group, Time spent [1, 11]: +146%
Number of entries in the open arms (Mean ± SEM) [1, 9]: 2.58 ± 0.26
Time spent in the open arms (Mean ± SEM) [1, 9]: 25.66 ± 3.84
